We go through one compound from PMC7083565, “In vitro metabolism, reaction phenotyping, enzyme kinetics, CYP inhibition and induction potential of ataluren” (Pharmacology Research & Perspectives, 2020).

The structures appear in SMILES notation.

What all share (assay type): in vitro ADME
One data set deals with CYP2E1. Briefly: CYP induction in primary human hepatocytes: CYP2E1. The note with it: male, 48 h, 4 µM. The protocol: Human hepatocytes isolated from three Caucasian males were transferred to 48‐well collagen‐coated plates at 0.14 × 10^6 cells/well in planting media for attachment. After attachment, planting media was replaced with sandwich media and the cells were incubated until clusters were established. […] The incubation solutions were aspirated and replaced with freshly prepared incubation solutions containing ataluren for an additional 24 hours. […] The incubation solutions were then aspirated and 150 µL of K‐H buffer containing CYP substrates were added. […] Metabolite formation in incubations with test compounds and control inhibitors was assessed with validated LC‐MS/MS methods for each of the reaction products as described in Table S2. Enzymatic activity for each CYP was calculated using the absolute amount of metabolite formed (pmol) divided by hepatocytes in the incubation (million cells) and the incubation time (minute). The relative fold induction in enzymatic activity was calculated by comparing the rate of metabolite formation for treatment groups to that of the solvent control group (reported as vehicle control%) or positive control group (reported as positive control%).

Another data set relates to CYP2B6. Briefly: CYP induction in primary human hepatocytes: CYP2B6. The note with it: Bupropion-hydroxylase, 48 hours, n=3. As for the experimental part:
Human hepatocytes isolated from three Caucasian males were transferred to 48‐well collagen‐coated plates at 0.14 × 10^6 cells/well in planting media for attachment. After attachment, planting media was replaced with sandwich media and the cells were incubated until clusters were established. […] The incubation solutions were aspirated and replaced with freshly prepared incubation solutions containing ataluren for an additional 24 hours. […] The incubation solutions were then aspirated and 150 µL of K‐H buffer containing CYP substrates were added. The hepatocytes were incubated for 30 minutes for CYP2C8 (10 µmol/L amodiaquine), 1 hour for CYP3A4 (125 µmol/L testosterone), and 4 hours for CYPs 1A2 (100 µmol/L phenacetin), 2A6 (100 µmol/L coumarin), 2B6 (150 µmol/L bupropion), 2C9 (50 µmol/L tolbutamide), 2C19 (100 µmol/L S‐mephenytoin), and 2E1 (300 µmol/L chlorzoxazone) activity assays. The reactions were stopped by the addition of 0.15 mL of ice‐cold methanol except that coumarin‐treated cells were incubated with β‐glucuronidase and aryl sulfatase for additional 1 hour to free 7‐hydroxycoumarin before the addition of 0.2 mL of ice‐cold methanol. Metabolite formation in incubations with test compounds and control inhibitors was assessed with validated LC‐MS/MS methods for each of the reaction products as described in Table S2. Enzymatic activity for each CYP was calculated using the absolute amount of metabolite formed (pmol) divided by hepatocytes in the incubation (million cells) and the incubation time (minute). The relative fold induction in enzymatic activity was calculated by comparing the rate of metabolite formation for treatment groups to that of the solvent control group (reported as vehicle control%) or positive control group (reported as positive control%).

Data set [1] is described as follows: Plasma protein binding (ultrafiltration), monkey. The note with it: male, cynomolgus, 50 to 50 000 ng/mL, mean ± SD, n = 3, read-out: percentage protein binding (converted). As for the experimental part:
[^14C]‐Ataluren, at 50, 500, 5000, and 50 000 ng/mL or 0.175, 1.75, 17.5, and 175 µM, in male mouse, rat, dog, monkey, and human plasma, was incubated (n = 3) at 37°C for approximately 15 minutes, transferred into Centrifree® Micropartition Units (30 000 Da molecular weight cutoff, 1 mL capacity; Amicon Inc), and centrifuged at 37°C and 2000 g for approximately 10 minutes so that the amount of the sample filtered was approximately ≤ 20% of the total volume. After centrifugation, the entire ultrafiltrate was weighed and analyzed for radioactivity using liquid scintillation counting. The percent bound = (1‐Cu/Cm)×100, where Cu is the concentration of radioactivity in the ultrafiltrate and Cm is the concentration of radioactivity in the plasma before centrifugation.

`O=C(O)c1cccc(-c2noc(-c3ccccc3F)n2)c1` [ataluren, Ataluren]: the “Vehicle control %, Mean” value in the data set on CYP2E1 is listed as 99.0%; in the data set on CYP2B6 (ataluren 4 µM), 111%; in the data set with CYP2B6 (ataluren 40 µM), 123%; in the data set with CYP2B6 (ataluren 400 µM), 170%. Moreover, the “Positive control %, Mean” value in the data set with CYP2B6 (ataluren 4 µM) amounted to 2.81%; in the data set with CYP2B6 (ataluren 40 µM), 6.27%; in the data set with CYP2B6 (ataluren 400 µM) it was 19.8%. For the same compound, the fraction unbound at 15 min in data set [1] is 0.003.
